In publication PMC9272937, “Anti-breast cancer sinomenine derivatives via mechanisms of apoptosis induction and metastasis reduction” (Journal of Enzyme Inhibition and Medicinal Chemistry, 2022):
Like-named read-outs stand apart in the source and are kept apart here.

Columns and labels:
[1] = system: human lung cancer cell line A549; experiment: CCK-8 antiproliferative assay, A549; assay type: cell-based; conditions: CCK-8, 48 h, mean ± SD of three experiments
Protocol: (§1) The antiproliferative activities of target compounds were examined by CCK-8 assay in three cancer cells (human lung cancer cell line A549, human mammary gland tumour cell line MCF-7 and human TNBC cell line MDA-MB-231) and one normal cell (human normal breast cell line MCF10A). All cell lines were sourced from KeyGEN Biotech, […], China, and a standard DMEM medium was applied to all cell cultures then subjected to 24 h incubation at 37 °C in a humidified environment with 5% CO2. After that logarithmic growing cells were plated on 96-well plates with 8,000 cells per well in a […] medium for 24 h incubation at 37 °C with 5% CO2. The DMEM medium with bovine serum was removed from each well. Then, prerequisite target compounds and positive controls were added to different cell lines in a predetermined concentration regiment for 48 h culture.

[2] = system: human mammary gland tumour cell line MCF-7; experiment: CCK-8 antiproliferative assay, MCF-7; assay type: cell-based; conditions: for IC50: Homo sapiens, read-out: IC50 MCF-7; for SI MCF-7 (selectivity index): SI = IC50(MCF-10A)/IC50(MCF-7)
Protocol: as §1

[3] = system: human TNBC cell line MDA-MB-231; experiment: CCK-8 antiproliferative assay, MDA-MB-231; assay type: cell-based; conditions: for IC50: Homo sapiens, read-out: IC50 MDA-MB-231; for SI MDA-MB-231 (selectivity index): SI = IC50(MCF-10A)/IC50(MDA-MB-231)
Protocol: as §1

[4] = system: human normal breast cell line MCF10A; experiment: CCK-8 assay, normal cells MCF10A; assay type: cell-based; conditions: MCF-10A, CCK-8, 48 h, mean ± SD of three experiments
Protocol: as §1

[5] = Griess assay, NO-releasing capacity; conditions: 10^−4 mol/l compound, L-cysteine, 37 °C; for NO peak releasing: 15-180 min
Protocol: The NO-releasing capacity of each target compound was determined by the colorimetric method under the instructions of the manufacturer. Preparation of standard curves of 0, 1.56, 3.13, 6.25, 12.5, 25, 50 and 100 μmol/L nitrite nitrogen series standard solution was prepared. 50 μL to 96-well plate was added respectively and then mixed with 50 μL Griess I and Griess II; the absorption value was measured at 540 nm wavelength. A standard curve was drawn from the obtained data. Compounds were formulated into 10^−4 mol/l with PBS (pH = 7.4) and pharmaceutical DMSO. The newly formulated L-cysteine solution 100 μL ([…]) was added and incubated at 37 °C for 15, 30, 45, 60, 90, 120, 150 and180 min, respectively. Griess I and II recovered to room temperature, 50 μL of compounds 7A–E(a–c) were added respectively into the 96-well plate, and then 50 μL of Griess I and 50 μL of Griess II were added in sequence, with the absorbance tested at 540 nm. The amount of NO released was then calculated according to the standard curve.

Compound | IC50 ([1]; Homo sapiens, A549) [µM] | IC50 ([2]; MCF7, 48 h) [µM] | SI MCF-7 (selectivity index) [2] | IC50 ([3]; MDA-MB-231, 48 h) [µM] | SI MDA-MB-231 (selectivity index) [3] | IC50 [4] [µM] | NO peak releasing [5] | NO release at 180 min ([5]; 180 min) [µmol/L] | IC50 [1] [µM] | IC50 ([2]; MCF7, CCK-8, 48 h, mean ± SD of three experiments) [µM] | IC50 ([3]; MDA-MB-231, CCK-8, 48 h, mean ± SD of three experiments) [µM]
COC1=CC2[C@H]3Cc4ccc(OC)c(OC(=O)CCCC(=O)OCCCCCOc5no[n+]([O-])c5S(=O)(=O)c5ccccc5)c4[C@@]2(CCN3C)CC1=O (stereo partly drawn) [7Db, 4-((5-((5-(((4bs,9R)-3,7-Dimethoxy-11-methyl-6-oxo-6,8a,9,10-tetrahydro-5H-9,4b-(epiminoethano)phenanthren-4-yl)oxy)-5-oxopentanoyl)oxy)pentyl)oxy)-3-(phenylsulfonyl)-1,2,5-oxadiazole 2-oxide] | 3.92 ± 0.31 | 2.94 ± 0.27 | 13.43 | 3.11 ± 0.22 | 12.69 | 39.5 ± 2.9 | – | – | – | – | –
COC1=CC2[C@H]3Cc4ccc(OC)c(OC(=O)CCCC(=O)OCCCCOc5no[n+]([O-])c5S(=O)(=O)c5ccccc5)c4[C@@]2(CCN3C)CC1=O (stereo partly drawn) [7Cb, 4–(4-((5-(((4bs,9R)-3,7-Dimethoxy-11-methyl-6-oxo-6,8a,9,10-tetrahydro-5H-9,4b-(epiminoethano)phenanthren-4-yl)oxy)-5-oxopentanoyl)oxy)butoxy)-3-(phenylsulfonyl)-1,2,5-oxadiazole 2-oxide] | 3.53 ± 0.29 | 4.68 ± 0.39 | 7.84 | 1.47 ± 0.14 | 24.97 | 36.7 ± 1.02 | – | – | – | – | –
COC1=CC2[C@H]3Cc4ccc(OC)c(OC(=O)CCC(=O)OCCCCOc5no[n+]([O-])c5S(=O)(=O)c5ccccc5)c4[C@@]2(CCN3C)CC1=O (stereo partly drawn) [7Ca, 4–(4-((4-(((4bs,9R)-3,7-Dimethoxy-11-methyl-6-oxo-6,8a,9,10-tetrahydro-5H-9,4b-(epiminoethano)phenanthren-4-yl)oxy)-4-oxobutanoyl)oxy)butoxy)-3-(phenylsulfonyl)-1,2,5-oxadiazole 2-oxide] | 2.97 ± 0.14 | 2.55 ± 0.14 | 15.95 | 2.26 ± 0.19 | 18 | 40.7 ± 2.79 | exceeding 40 μmol/L | – | – | – | –
COC1=CC2C3Cc4ccc(OC)c(OC(=O)CCC(=O)OCCCOc5no[n+]([O-])c5S(=O)(=O)c5ccccc5)c4C2(CCN3C)CC1=O (stereo not shown) [7Ba] | 9.84 ± 0.47 | 19 ± 1.33 | >2.64 | 24.2 ± 1.97 | >2.06 | > 50 | – | 68.4 | – | – | –
COC1=CC2[C@H]3Cc4ccc(OC)c(OC(=O)CCCC(=O)OCCOc5no[n+]([O-])c5S(=O)(=O)c5ccccc5)c4[C@@]2(CCN3C)CC1=O (stereo partly drawn) [7Ab, 4–(2-((5-(((4bs,9R)-3,7-Dimethoxy-11-methyl-6-oxo-6,8a,9,10-tetrahydro-5H-9,4b-(epiminoethano)phenanthren-4-yl)oxy)-5-oxopentanoyl)oxy)ethoxy)-3-(phenylsulfonyl)-1,2,5-oxadiazole 2-oxide] | 9.41 ± 0.68 | 15.3 ± 0.94 | >3.27 | 29.6 ± 1.8 | >1.69 | > 50 | – | – | – | – | –
COC1=CC2[C@H]3Cc4ccc(OC)c(OC(=O)CCC(=O)OCCCCCOc5no[n+]([O-])c5S(=O)(=O)c5ccccc5)c4[C@@]2(CCN3C)CC1=O (stereo partly drawn) [7Da, 4-((5-((4-(((4bs,9R)-3,7-Dimethoxy-11-methyl-6-oxo-6,8a,9,10-tetrahydro-5H-9,4b-(epiminoethano)phenanthren-4-yl)oxy)-4-oxobutanoyl)oxy)pentyl)oxy)-3-(phenylsulfonyl)-1,2,5-oxadiazole 2-oxide] | 2.79 ± 0.07 | 1.8 ± 0.11 | 13.74 | 0.92 ± 0.01 | 26.89 | 24.7 ± 1.67 | exceeding 40 μmol/L | – | – | – | –
COC1=CC2[C@H]3Cc4ccc(OC)c(OC(=O)c5ccccc5C(=O)OCCCCCCOc5no[n+]([O-])c5S(=O)(=O)c5ccccc5)c4[C@@]2(CCN3C)CC1=O (stereo partly drawn) [7Ec, 4-((6-((2-((((4bs,9R)-3,7-Dimethoxy-11-methyl-6-oxo-6,8a,9,10-tetrahydro-5H-9,4b-(epiminoethano)phenanthren-4-yl)oxy)carbonyl)benzoyl)oxy)hexyl)oxy)-3-(phenylsulfonyl)-1,2,5-oxadiazole 2-oxide] | 4.81 ± 0.18 | 3.94 ± 0.28 | 12.26 | 1.81 ± 0.13 | 26.70 | 48.3 ± 3.78 | – | – | – | – | –
COC1=CC2[C@H]3Cc4ccc(OC)c(OC(=O)c5ccccc5C(=O)OCCCOc5no[n+]([O-])c5S(=O)(=O)c5ccccc5)c4[C@@]2(CCN3C)CC1=O (stereo partly drawn) [7Bc, 4–(3-((2-((((4bs,9R)-3,7-Dimethoxy-11-methyl-6-oxo-6,8a,9,10-tetrahydro-5H-9,4b-(epiminoethano)phenanthren-4-yl)oxy)carbonyl)benzoyl)oxy)propoxy)-3-(phenylsulfonyl)-1,2,5-oxadiazole 2-oxide] | 5.05 ± 0.21 | 12.2 ± 0.92 | >4.11 | 18.7 ± 0.61 | >2.67 | > 50 | – | – | – | – | –
COC1=CC2[C@H]3Cc4ccc(OC)c(OC(=O)CCCC(=O)OCCCCCCOc5no[n+]([O-])c5S(=O)(=O)c5ccccc5)c4[C@@]2(CCN3C)CC1=O (stereo partly drawn) [7Eb, 4-((6-((5-(((4bs,9R)-3,7-Dimethoxy-11-methyl-6-oxo-6,8a,9,10-tetrahydro-5H-9,4b-(epiminoethano)phenanthren-4-yl)oxy)-5-oxopentanoyl)oxy)hexyl)oxy)-3-(phenylsulfonyl)-1,2,5-oxadiazole 2-oxide] | 4.55 ± 0.43 | 17.9 ± 1.26 | >2.79 | 41.5 ± 1.48 | >1.21 | > 50 | – | – | – | – | –
COC1=CC2[C@H]3Cc4ccc(OC)c(OC(=O)CCC(=O)OCCCCCCOc5no[n+]([O-])c5S(=O)(=O)c5ccccc5)c4[C@@]2(CCN3C)CC1=O (stereo partly drawn) [7Ea, 4-((6-((4-(((4bs,9R)-3,7-Dimethoxy-11-methyl-6-oxo-6,8a,9,10-tetrahydro-5H-9,4b-(epiminoethano)phenanthren-4-yl)oxy)-4-oxobutanoyl)oxy)hexyl)oxy)-3-(phenylsulfonyl)-1,2,5-oxadiazole 2-oxide] | 4.62 ± 0.16 | 25.3 ± 0.9 | 2.79 | 19 ± 0.7 | 2.30 | 43.6 ± 2.65 | – | – | – | – | –
COC1=CC2[C@H]3Cc4ccc(OC)c(OC(=O)c5ccccc5C(=O)OCCCCCOc5no[n+]([O-])c5S(=O)(=O)c5ccccc5)c4[C@@]2(CCN3C)CC1=O (stereo partly drawn) [7Dc, 4-((5-((2-((((4bs,9R)-3,7-Dimethoxy-11-methyl-6-oxo-6,8a,9,10-tetrahydro-5H-9,4b-(epiminoethano)phenanthren-4-yl)oxy)carbonyl)benzoyl)oxy)pentyl)oxy)-3-(phenylsulfonyl)-1,2,5-oxadiazole 2-oxide] | 1.63 ± 0.05 | 2.18 ± 0.1 | 9.11 | 1.88 ± 0.09 | 10.56 | 19.9 ± 1.43 | exceeding 40 μmol/L | – | – | – | –
N.N.[Cl][Pt][Cl] [Cisplatin, cisplatin, reference compound] | – | – | – | – | – | – | – | – | 4.97 ± 0.37 | – | –
COC1=CC2[C@H]3Cc4ccc(OC)c(OC(=O)CCCC(=O)OCCCOc5no[n+]([O-])c5S(=O)(=O)c5ccccc5)c4[C@@]2(CCN3C)CC1=O (stereo partly drawn) [7Bb, 4–(3-((5-(((4bs,9R)-3,7-Dimethoxy-11-methyl-6-oxo-6,8a,9,10-tetrahydro-5H-9,4b-(epiminoethano)phenanthren-4-yl)oxy)-5-oxopentanoyl)oxy)propoxy)-3-(phenylsulfonyl)-1,2,5-oxadiazole 2-oxide] | 4.91 ± 0.3 | 19.7 ± 1.28 | >2.54 | 16.4 ± 1.55 | >3.04 | > 50 | – | – | – | – | –
COc1cccc2c1C(=O)c1c(O)c3c(c(O)c1C2=O)C[C@@](O)(C(=O)CO)C[C@@H]3O[C@H]1C[C@H](N)[C@H](O)[C@H](C)O1 [Adriamycin, adriamycin, reference compound] | – | – | – | – | – | – | – | – | – | 5.12 ± 0.31 | 4.92 ± 0.44
